Measured values reported in patent publication US20200291018A1, “TAM KINASE INHIBITORS” (SYROS PHARMACEUTICALS, INC., priority 2017, published 2020).

Tests used:
AXL = biological target: T1, AXL (Homo sapiens, UniProt P30530); test: TR-FRET kinase activity assay, AXL; type: biochemical; details: ATP at Km, 60 minutes
T1 sequence (P30530 26-894): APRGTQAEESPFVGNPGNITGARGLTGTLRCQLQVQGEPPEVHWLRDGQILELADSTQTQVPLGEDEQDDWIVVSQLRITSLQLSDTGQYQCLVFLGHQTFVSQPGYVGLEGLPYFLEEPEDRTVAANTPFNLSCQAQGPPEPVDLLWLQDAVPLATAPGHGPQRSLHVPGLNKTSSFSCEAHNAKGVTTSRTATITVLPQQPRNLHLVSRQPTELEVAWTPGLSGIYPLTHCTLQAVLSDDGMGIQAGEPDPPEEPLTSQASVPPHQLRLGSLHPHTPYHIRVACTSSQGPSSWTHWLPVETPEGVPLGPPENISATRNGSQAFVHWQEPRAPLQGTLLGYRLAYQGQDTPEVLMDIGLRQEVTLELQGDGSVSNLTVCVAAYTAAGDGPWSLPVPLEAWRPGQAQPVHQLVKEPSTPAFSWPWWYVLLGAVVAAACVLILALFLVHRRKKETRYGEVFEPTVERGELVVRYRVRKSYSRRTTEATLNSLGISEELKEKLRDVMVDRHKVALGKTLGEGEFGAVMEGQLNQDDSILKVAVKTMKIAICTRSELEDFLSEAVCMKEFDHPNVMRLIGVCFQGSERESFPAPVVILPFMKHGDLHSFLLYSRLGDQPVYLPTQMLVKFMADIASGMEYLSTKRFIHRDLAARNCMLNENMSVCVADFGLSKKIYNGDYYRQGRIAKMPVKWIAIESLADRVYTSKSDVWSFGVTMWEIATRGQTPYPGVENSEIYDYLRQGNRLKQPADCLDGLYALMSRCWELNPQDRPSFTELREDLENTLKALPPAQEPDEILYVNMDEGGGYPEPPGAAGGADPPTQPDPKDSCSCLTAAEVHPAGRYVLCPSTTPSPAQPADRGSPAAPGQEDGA
Description: (§1) IC50 values for compound inhibition of AXL, FLT3, MERTK and TYRO3 activity were determined using a TR-FRET activity assay. A peptide substrate with a fluorescent label is phosphorylated on a tyrosine by each enzyme, where the now phosphorylated product is bound by a Europium-labeled antibody specific to that phosphorylation site. The proximity between the antibody and the substrate gives a signal known as TR-FRET. As the enzyme is inhibited by compound, less phosphorylated peptide product is made, causing a decrease in overall signal.
(§2) Activity assays were performed in a 384-well, small volume, black microplates in an active enzyme volume of 10 uL and final developed volume of 20 uL. Final assay conditions are 50 mM HEPES pH 7.5, 10 mM MgCl2, 1 mM EGTA, 0.01% Brij 35 and 1 mM DTT, all at RT. Enzyme, substrate-labeled peptide and compound are mixed, and then the reaction is initiated with the addition of ATP at Km concentration for each enzyme. The reaction is allowed to run 60 minutes and then quenched with a 12.5 mM EDTA (ethylenediamine tetraacetic acid) solution. The plate is then developed with the addition of Europium-labeled antibody for a final volume of 20 uL and is then incubated for 30 minutes in darkness. Plates are read in a PHERASTAR® plate reader. Data are analyzed in GraphPad PRISM.

TYRO3 = biological target: T2, TYRO3 (Homo sapiens, UniProt Q06418); test: TR-FRET kinase activity assay, TYRO3; type: biochemical; details: ATP at Km, 60 minutes
T2 sequence (Q06418 41-890): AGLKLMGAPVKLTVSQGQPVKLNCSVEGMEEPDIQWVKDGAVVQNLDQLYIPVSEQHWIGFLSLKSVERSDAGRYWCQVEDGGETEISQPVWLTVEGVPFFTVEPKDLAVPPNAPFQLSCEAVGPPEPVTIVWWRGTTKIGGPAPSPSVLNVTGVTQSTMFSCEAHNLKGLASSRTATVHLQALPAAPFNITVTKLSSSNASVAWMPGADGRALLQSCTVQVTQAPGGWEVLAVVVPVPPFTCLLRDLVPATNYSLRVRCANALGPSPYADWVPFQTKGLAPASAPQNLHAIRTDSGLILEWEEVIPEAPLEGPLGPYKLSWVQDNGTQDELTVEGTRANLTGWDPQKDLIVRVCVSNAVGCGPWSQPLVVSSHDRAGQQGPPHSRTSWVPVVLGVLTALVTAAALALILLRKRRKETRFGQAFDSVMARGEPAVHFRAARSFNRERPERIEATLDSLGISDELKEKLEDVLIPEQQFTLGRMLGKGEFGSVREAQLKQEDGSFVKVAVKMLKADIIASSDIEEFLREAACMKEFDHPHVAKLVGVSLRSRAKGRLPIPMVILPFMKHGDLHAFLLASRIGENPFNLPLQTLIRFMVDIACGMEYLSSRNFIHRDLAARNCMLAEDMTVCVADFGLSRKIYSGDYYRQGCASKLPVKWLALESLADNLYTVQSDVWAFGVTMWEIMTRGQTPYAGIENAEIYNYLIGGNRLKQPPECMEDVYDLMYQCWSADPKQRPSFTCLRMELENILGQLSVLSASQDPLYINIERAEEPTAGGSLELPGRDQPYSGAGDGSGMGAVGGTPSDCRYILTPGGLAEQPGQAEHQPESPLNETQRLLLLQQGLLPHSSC
Description: as §1, §2

SMILES | IC50 (AXL) [nM] | IC50 (TYRO3) [nM]
CC[C@H](C)Nc1ncc2c(OC3CC(C)(C)N(C)C(C)(C)C3)ncc([C@H]3CC[C@H](O)CC3)c2n1 [Compound 227] | ≤ 100 | ≤ 100
CC[C@H](C)Nc1ncc2c(NC34CCC(O)(CC3)CC4)ncc([C@H]3CC[C@H](O)CC3)c2n1 [Compound 238] | 100 to 1000 | 1000 to 10000
CCCC(C)Nc1ncc2c(=O)n([C@@H]3CCCN(C)C3)cc([C@H]3CC[C@H](O)CC3)c2n1 (stereo partly shown) [Compound 200] | 1000 to 10000 | ≤ 100
CC[C@H](C)Nc1ncc2c(NC3CCN(C)CC3)ncc([C@H]3CC[C@H](O)CC3)c2n1 [Compound 220] | ≤ 100 | 100 to 1000
Cc1cc(Cl)ccc1Nc1ncc2c(OC3CCNCC3)ncc([C@H]3CC[C@H](O)CC3)c2n1 [Compound 198] | 1000 to 10000 | ≤ 100
O[C@H]1CC[C@H](c2cnc(OC3CCNCC3)c3cnc(N[C@@H]4CCCOC4)nc32)CC1 [Compound 232] | 100 to 1000 | 100 to 1000
O[C@H]1CC[C@H](c2cnc(OC3CCNCC3)c3cnc(Nc4ccc(Cl)cc4)nc32)CC1 [Compound 206] | ≤ 100 | ≤ 100
CC[C@H](C)Nc1ncc2c(O[C@H]3CC[C@H](C(C)(C)O)CC3)ncc([C@H]3CC[C@H](O)CC3)c2n1 [Compound 261] | 100 to 1000 | 100 to 1000
CCc1cccc(Nc2ncc3c(OC4CCNCC4)ncc([C@H]4CC[C@H](O)CC4)c3n2)c1 [Compound 207] | ≤ 100 | 100 to 1000
CCOc1ncc(CC2CCN(C)CC2)c2nc(N[C@@H](C)CC)ncc12 [Compound 253] | 1000 to 10000 | 100 to 1000
CC[C@H](C)Nc1ncc2c(O[C@H]3CC[C@H](O)CC3)ncc([C@H]3CC[C@H](O)CC3)c2n1 [Compound 229] | 100 to 1000 | 100 to 1000
COC[C@H](C)Nc1ncc2c(OC3CCOCC3)ncc(C3CCC4(CC3)OCCO4)c2n1 [Compound 243] | 1000 to 10000 | 1000 to 10000
CCCC(C)Nc1ncc2c(O[C@@H]3CCCN(C)C3)ncc([C@H]3CC[C@H](O)CC3)c2n1 (stereo partly shown) [Compound 214] | 1000 to 10000 | ≤ 100
CCOc1ncc([C@H]2CC[C@H](O)CC2)c2nc(N[C@@H](C)CC)ncc12 [Compound 235] | ≤ 100 | ≤ 100
CC[C@H](C)Nc1ncc2c(C)ncc([C@H]3CC[C@H](O)CC3)c2n1 [Compound 255] | ≤ 100 | ≤ 100
O[C@H]1CC[C@H](c2cnc(OC3CCNCC3)c3cnc(N[C@H]4CCCOC4)nc32)CC1 [Compound 216] | 1000 to 10000 | 100 to 1000
CC[C@H](C)Nc1ncc2c(OC3C[C@H]4CC[C@@H](C3)O4)ncc([C@H]3CC[C@H](O)CC3)c2n1 (stereo partly shown) [Compound 223] | 100 to 1000 | 100 to 1000
CC[C@H](C)Nc1ncc2c(OC3CCOCC3)ncc([C@H]3CC[C@H](O)CC3)c2n1 [Compound 226] | 100 to 1000 | 100 to 1000
O[C@H]1CC[C@H](c2cnc(OC3CCNCC3)c3cnc(NC4CCOCC4)nc32)CC1 [Compound 211] | 100 to 1000 | 100 to 1000
O[C@H]1CC[C@H](c2cnc(OC3CCNCC3)c3cnc(N[C@@H]4CCOC4)nc32)CC1 [Compound 213] | 100 to 1000 | 100 to 1000
CC[C@H](C)Nc1ncc2c(OC(CO)CO)ncc([C@H]3CC[C@H](O)CC3)c2n1 [Compound 241] | 1000 to 10000 | ≤ 100

SMILES | IC50 (AXL) [nM] | IC50 (TYRO3) [nM]
CCC[C@@H](C)Nc1ncc2c(OC3CCN(C)CC3)ncc([C@H]3CC[C@H](O)CC3)c2n1 [Compound 208] | 100 to 1000 | 100 to 1000
CC[C@H](C)Nc1ncc2c(=O)n(C[C@@H]3COCCN3C)cc([C@H]3CC[C@H](O)CC3)c2n1 [Compound 263] | 100 to 1000 | 100 to 1000
COC[C@H](C)Nc1ncc2c(OC3CCOCC3)ncc(C3=CCC4(CC3)OCCO4)c2n1 [Compound 242] | 1000 to 10000 | 100 to 1000
CC[C@H](C)Nc1ncc2c(OCC34CCC(O)(CC3)CC4)ncc([C@H]3CC[C@H](O)CC3)c2n1 [Compound 256] | 1000 to 10000 | 100 to 1000
CC[C@H](C)Nc1ncc2c(OC3CCN(S(C)(=O)=O)CC3)ncc([C@H]3CC[C@H](O)CC3)c2n1 [Compound 233] | ≤ 100 | ≤ 100
CC(Nc1ncc2c(OC3CCNCC3)ncc([C@H]3CC[C@H](O)CC3)c2n1)c1ccncc1 (stereo partly shown) [Compound 202] | 1000 to 10000 | ≤ 100
CC[C@H](C)Nc1ncc2c(C3CCN(C)CC3)ncc([C@H]3CC[C@H](O)CC3)c2n1 [Compound 240] | 1000 to 10000 | 100 to 1000
CCOc1ncc([C@H]2CC[C@H](O)CC2)c2nc(N[C@@H](C)COC)ncc12 [Compound 273] | 100 to 1000 | 100 to 1000
O[C@H]1CC[C@H](c2cnc(OC3CCNCC3)c3cnc(Nc4cccc(F)c4)nc32)CC1 [Compound 270] | ≤ 100 | ≤ 100
O[C@H]1CC[C@H](c2cnc(OC3CCNCC3)c3cnc(Nc4cccc(Cl)c4)nc32)CC1 [Compound 205] | ≤ 100 | ≤ 100
O[C@H]1CC[C@H](c2cnc(OC3CCNCC3)c3cnc(Nc4ccc(F)cc4)nc32)CC1 [Compound 269] | ≤ 100 | ≤ 100
CC[C@H](C)Nc1ncc2c(=O)n(CC34CCC(N)(CC3)CC4)cc([C@H]3CC[C@H](O)CC3)c2n1 [Compound 251] | 100 to 1000 | ≤ 100
CCCCNc1cc2c(cn1)c(OC1CCNCC1)ncc2[C@H]1CC[C@H](O)CC1 [Compound 107] | ≤ 100 | ≤ 100
CCOc1ncc(C2CCN(C)CC2)c2nc(N[C@@H](C)CC)ncc12 [Compound 215] | 1000 to 10000 | ≤ 100
CC[C@H](C)Nc1ncc2c(=O)n([C@H]3CC[C@H](N(C)C)C3)cc([C@H]3CC[C@H](O)CC3)c2n1 [Compound 266] | 100 to 1000 | ≤ 100
CCC[C@@H](C)Nc1ncc2c(OC3CCNCC3)ncc([C@H]3CC[C@H](O)CC3)c2n1 [Compound 196] | 100 to 1000 | ≤ 100
CC[C@H](C)Nc1ncc2c(OC3C[C@H]4CC[C@@H](C3)O4)ncc([C@H]3CC[C@H](O)CC3)c2n1 (stereo partly shown) [Compound 237] | 1000 to 10000 | 1000 to 10000
CCCC(C)Nc1ncc2c(OC3CCNCC3)ncc([C@H]3CC[C@H](O)CC3)c2n1 (stereo partly shown) [Compound 203] | ≤ 100 | ≤ 100
CCOc1ncc(CC2CCN(C(=O)OC(C)(C)C)CC2)c2nc(N[C@@H](C)CC)ncc12 [Compound 254] | 1000 to 10000 | 1000 to 10000
O[C@H]1CC[C@H](c2cnc(OC3CCNCC3)c3cnc(NCCC(F)(F)F)nc32)CC1 [Compound 224] | ≤ 100 | 100 to 1000
